Data published in patent US10000521B2 (priority 2013, dated 2018).

Key:
[1] = system: HCV replicon; test: IC50 assay with HCV luciferase replicon cell-line; format: cell-based; details: Hepatitis C virus, Huh-7; Huh7 cell line containing HCV replicon with luciferase reporter, 48 h
Excerpt: Plating Cells: The cells used in these assays were a liver-derived Huh7 cell line containing an HCV replicon bearing a luciferase reporter gene. The Huh7 cell-line can be obtained from various sources including the Japanese Collection of Research Bioresources (JCRB), Osaka, Japan. The Huh7 cell line containing an HCV replicon bearing a luciferase reporter gene can be prepared essentially as described by Vrolijk J M, et al. (J Virol Methods. (2003) 110(2):201-9). Cells were passaged when they reached about 70% confluency.
These 0.5 mM dilutions were then used to further serially dilute the compounds in DMEM+2% FBS+0.5% DMSO to keep the concentration of DMSO in each condition identical.
The Glo Lysis Buffer and the Bright Glow reagent was allowed to warm to room temperature for about 30 min in the dark. […] The media was removed from cells, and the cells were gently washed with about 100 μL of phosphate buffered saline (PBS). […] It should be noted that luciferin has a half-life of approximately 30 min at room temperature after it is added to the plate. […] The data was saved and used to calculate the percent inhibition of luciferase activity at each drug concentration. […] Curve equation: (m1−m2)/(1+(x/m3)^m4); m1=100; m2=0.01; m3=0.01; m4=0.01; the equation is: […]

[2] = system: Huh7 cells; test: TC50 MTS cell viability assay with Huh7 cells (48 h); format: cell-based; details: Homo sapiens, Huh-7
Excerpt: Plating Cells: Huh7 cells (a hepatocellular carcinoma cell-line; these cells can be obtained from the Japanese Collection of Research Bioresources (JCRB), Osaka, Japan) were used to determine the TC50 for representative compounds of the present invention. Briefly, Huh7 cells were passaged when they reached about 70% confluency. The cells were counted using a hemocytometer following dilution of the cells to about 0.5×10^5 cells per mL in DMEM with 10% fetal bovine serum (FBS). The cells were plated in a clear 96-well plate (about 5,000 cells in 100 μL per well). The cells were allowed to attach for about 24 hours at 37° C.
Treating of the cells: The DMEM media without phenol red containing 2% FBS was pre-warmed to 37° C. […] Following dilution, the final DMSO concentration was about 0.5% (v/v). […] The plates were then returned to the incubator and incubated with the cells for 48 h at 37° C.
(§1) The 96-well plate with cells incubated with test compound was removed from the 37° C. incubator. The appropriate amounts of the MTS and PMS reagents were removed from the kit and mixed well. The reagents were maintained in the dark due to their light sensitivity. […] The solutions were mixed completely in the wells prior to each reading.

[3] = Stability test at different pH conditions (HPLC); format: physicochemical
Experimental: HPLC analysis: 100 μl of the incubated solution was loaded onto a Vydac C18 analytical column 4.6/250, and the mobile phase run at 1 mL/min water with the following procedures: a. Inject 100 μl the incubated solution; b. Water for 5 minutes at 1 ml/min; c. 0-100% acetonitrile over 30 minutes; d. Back to 100% water.
Analysis: Standard HPLC analysis software was used to quantitate the area under each peak. Degradation peaks were quantitated as a percentage of the peak of the same amount of control sample (no heat treatment).

[4] = system: Huh7 cells; test: TC50 assay with inhibition of ENT1, Huh7 cells; format: cell-based; details: Homo sapiens, Huh-7, 48 h, Huh7 cells (48 h)
Experimental: (§2) Plating Cells: Huh7 cells or PK9 cells were seeded in 96-well plates at a density of 5,000 cells/well or 2,500 cells/well, respectively, and the plates were incubated at 37° C. for 24 h to allow for cell attachment.
(§3) Treatment with equilibrative nucleoside transporter 1 (ENT1) Inhibitor: The media was then removed from the plates and replaced with media containing 2% FBS, 0.5% DMSO, and either 10 μM dipyramidole or 10 μM S-(4-nitrobenzyl)-6-thioinosine (NBTI).
(§4) Treating with Control & Compound 1: After incubation with the ENT1 inhibitor, the cells were treated with each compound at final concentrations ranging from 500 μM to 0 μM in triplicate in media containing 2% FBS, 0.5% DMSO, and either 10 μM dipyridamole or 10 μM NBTI.

[5] = system: PK9 cells; test: TC50 assay with inhibition of ENT1, PK9 cells; format: cell-based; details: Homo sapiens, PK9, 48 h, PK9 cells (48 h)
Experimental: as §2, §3, §4

[6] = system: PK9 cells; test: TC50 assay, effect of deficient deoxycytidine kinase activity, PK9 cells; format: cell-based; details: Homo sapiens, 48 h, read-out: TC50 (μM), 48 h treatment
Experimental: (§5) Plating Cells: PK9 or RPK9 cells were seeded in 96-well plates at a density of 2,500 cells/well or 2,500 cells/well, respectively, and the plates were incubated at 37° C. for 24 h to allow for cell attachment.
(§6) Treating with Control & Compound 1: The cells were treated with each compound at final concentrations ranging from 500 μM to 0 μM in triplicate in media containing 2% FBS and 0.5% DMSO.
(§7) The RPK9 cells are described in Saiki, T., et al. (2012) Biochim. Biophys. Res. Commun. 421, 98-104).

[7] = system: RPK9 cells; test: cells; details: Homo sapiens, 48 h, read-out: TC50 (μM), 48 h treatment
Experimental: as §5, §6, §7

[8] = system: Huh7; test: TC50 assay in different human cell lines (96 h), Huh7; format: cell-based; details: Huh-7, about 96 h, MTS assay
Experimental: as §1
(§8) Plating Cells: Huh7, HEPG2, HEK293, MCF-7, or BxPC3 cells (which can be obtained from American Type Culture Collection, ATCC) were passaged when they were about 70% confluent. […] The cells following passaging were allowed to attach for about 24 hours at 37° C.
(§9) The plates were then returned to the incubator, and cells incubated for about 96 h at 37° C.
(§10) MTS Assay: Assay was carried out as described above.

[9] = system: HEPG2; test: TC50 assay in different human cell lines (96 h), HEPG2; format: cell-based; details: about 96 h, MTS assay
Experimental: as §1, §8, §9, §10

[10] = TC50 assay in different human cell lines (96 h), HEK293; format: cell-based; details: HEK293 cells, about 96 h, MTS assay
Experimental: as §1, §8, §9, §10

[11] = system: MCF-7; test: TC50 assay in different human cell lines (96 h), MCF-7; format: cell-based; details: MCF7, about 96 h, MTS assay
Experimental: as §1, §8, §9, §10

[12] = system: BxPC3; test: TC50 assay in different human cell lines (96 h), BxPC3; format: cell-based; details: BXPC-3, about 96 h, MTS assay
Experimental: as §1, §8, §9, §10

In the case of `O=C(Nc1ccn(C2O[C@H](CO)[C@@H](O)C2(F)F)c(=O)n1)c1ccc2c(c1)OCO2` (stereo partly drawn) [Compound 1, N-(1-((4R,5R)-3,3-difluoro-4-hydroxy-5-(hydroxymethyl)tetrahydrofuran-2-yl)-2-oxo-1,2-dihydropyrimidin-4-yl)benzo[d][1,3]dioxole-5-carboxamide], the IC50 [1] is reported as 0.06 ± 0.008 µM, the CC50 [2] is reported as 473 ± 74 µM and the “Compound remaining (%)” value ([3]; Pretreatment) is reported as 100%. For the same compound, the “Compound remaining (%)” value ([3]; pH 1, 40° C., 4 h) was 64%, the “Compound remaining (%)” value ([3]; pH 2, 40° C., 4 h) was 100% and the “Compound remaining (%)” value ([3]; pH 4, 40° C., 4 h) was 100%. The “Compound remaining (%)” value ([3]; pH 6, 40° C., 4 h) was 100%, the “Compound remaining (%)” value ([3]; pH 8, 40° C., 4 h) was 92% and the CC50 ([4]; 10 μM NBTI) was 440 ± 190 µM. The CC50 ([4]; 10 μM dipyridamole) was 410 ± 110 µM, the CC50 ([4]; ENT1 inhibitor: None) was 473 ± 74 µM and the CC50 ([5]; 10 μM NBTI) was 2.92 ± 0.41 µM. It also gave a CC50 ([5]; 10 μM dipyridamole) of 0.61 ± 0.31 µM, a CC50 ([5]; ENT1 inhibitor: None) of 1.63 ± 0.1 µM and a CC50 [6] of 1.63 ± 0.1 µM. For the same compound, the CC50 [7] was > 500 µM, the CC50 [8] was 7.04 µM and the CC50 [9] was 2.81 µM. It also gave a CC50 at 96 h [10] of 4.09 µM, a CC50 [11] of 1.19 µM and a CC50 [12] of 0.72 µM.
